In article PMC7530112 (European journal of medicinal chemistry, 2020):
“And” between values parts separate entries of the source, which are not always exact repeats. Equal entries are not always repeated. Where two headings read alike, the source gives them in different places.

Columns and labels:
[1] = human, microsomes
[2] = mouse, microsomes
[3] = Microsomal stability assay, human liver microsomes; conditions: without Cobi; for Phase I metabolic stability t1/2, HLM: 1 μM compound, 0.5 mg/mL microsomal protein, NADPH
HIV-1NL4-3 = experiment: Anti-HIV-1 assay in TZM-GFP cells; conditions: for Inhibition% at 2 μM: 2 μM compound; for Inhibition% at 20 μM: 20 μM compound
[4] = Microsomal stability assay, mouse liver microsomes; conditions: without Cobi, 1 μM compound, 0.5 mg/mL microsomal protein, NADPH
[5] = HLMs; cited from earlier work

Row | Molecule | Phase I metabolic stability t1/2, HLM [1] [min] | Phase I metabolic stability t1/2, MLM [2] [min] | fold improved half-life over PF74 in HLMs [3] | Inhibition% at 2 μM (HIV-1NL4-3) [%] | Inhibition% at 20 μM (HIV-1NL4-3) | Phase I metabolic stability t1/2, HLM [3] [min] | Phase I metabolic stability t1/2, MLM [4] [min] | half-life (t1/2) in human liver microsomes [5]
1 | (2S)-N-(3-Chlorophenyl)-2-(2-(4,7-dimethyl-2-oxoindolin-3-yl)acetamido)-N-methyl-3-phenylpropanamide [Compound 24] | 6.7 | 1.4 | 7 to 10 fold and 10 fold |  |  |  |  | 
2 | (2S)-N-Methyl-2-(2-(7-methyl-2-oxoindolin-3-yl)acetamido)-N,3-diphenylpropanamide [Compound 16] |  |  | 7 to 10 fold | 0 | 91% | 7.0 | 1 | 
3 | CN(C(=O)[C@H](Cc1ccccc1)NC(=O)Cc1ccc2ccccc2c1)c1ccc(Cl)cc1 [Compound 27, (S)-N-(4-Chlorophenyl)-N-methyl-2-(2-(naphthalen-2-yl)acetamido)-3-phenylpropanamide] | 2.7 | 1.4 |  | 95 | 100% |  |  | 
4 | CN(C(=O)C(Cc1ccccc1)NC(=O)CN1C(=O)NC2(CCCCC2)C1=O)c1ccc(Cl)cc1 (stereo not shown) [Compound 50, N-(4-Chlorophenyl)-2-(2-(2,4-dioxo-1,3-diazaspiro[4.5]decan-3-yl)acetamido)-N-methyl-3-phenylpropanamide] | 2.5 | 1.1 |  |  | −/96% |  |  | 
5 | (S)-N-(4-Chlorophenyl)-N-methyl-2-(2-(naphthalen-1-yl)acetamido)-3-phenylpropanamide [Compound 33] | 1.1 | 0.6 |  | 98 | 100% |  |  | 
6 | (S)-2-(2-(1,3-Dimethyl-2,6-dioxo-1,2,3,6-tetrahydro-7H-purin-7-yl)acetamido)-N-methyl-N,3-diphenylpropanamide [Compound 37] |  |  | 7 to 10 fold | 10 | 94% | 4.7 | 1.2 | 
7 | 2-(2-(2,4-Dioxo-1,3-diazaspiro[4.5]decan-3-yl)acetamido)-N-methyl-3-phenyl-N-(p-tolyl)propanamide [Compound 47] |  |  |  |  | −/92% | 3.3 | 1.2 | 
8 | (S)-N-Methyl-2-(2-(2-methyl-1H-indol-3-yl)acetamido)-N,3-diphenylpropanamide [PF74, reference compound] |  | 0.6 |  | 91 | 98% |  |  | less than 1 min
